Consider 19 compounds from PubChem BioAssay (NCI).

Where “and” joins values, the source holds several entries; their conditions need not be identical. Equal values may be shown once.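 Briefly, cells in 96-well plates were exposed to five compound concentrations for 48 h, and endpoints were estimated by linear interpolation. Here, GI50 denotes the concentration required for 50% inhibition of growth. TGI is the concentration that stops growth completely.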

The first assay has as its system OVCAR-3 ovarian. The assay can be described thus: inhibition of tumour cell growth, NCI panel, 48 h.
Turning to `O=C/C(=C(/Cl)c1ccc(O)cc1)c1ccccc1`, the TGI worked out at 37.5 µM.

Another assay deals with SK-MEL-28 melanoma. In words: inhibition of tumour cell growth, NCI panel, 48 h.
As for `CNC(=O)c1cc2c(Oc3ccc(NC(=O)C4(C(=O)Nc5ccc(F)cc5)CC4)cc3)ccnc2cc1OC`, the GI50 is 3.68 µM and the TGI is above 100 µM.

`Cc1cc(N(CCC#N)CCC#N)ccc1/C=C1N=C(/C=C/c2ccccc2)OC(=O)N\1` registered a TGI above 100 µM.

As for `O=S1(=O)NCCCN1CCNc1nccc(-c2c(-c3cccc(O)c3)nc3sccn23)n1`, the GI50 is 0.245 µM and the TGI was above 100 µM.

With `O=C(c1ccc2ccccc2c1)c1c(C(F)(F)F)n([O-])c2ccc(Cl)cc2[n+]1=O`, the GI50 is 1.63 µM and the TGI is 3.02 µM.

For the compound `CC(=O)OCC1OC(n2cc([N+](=O)[O-])c(=O)[nH]c2=O)C(OC(C)=O)C(OC(C)=O)C1OC(C)=O` (configuration not stated), the TGI is above 100 µM.

`O=C1C=C(O)c2[nH]c(=O)ccc2C1=O` came in with a TGI above 100 µM.

For the compound `NC(=O)c1cccc(Nc2nccc(Nc3cccc(F)c3)n2)c1`, the GI50 was 8.71 µM and the TGI is above 25 µM.

Consider `CCN(CC)CCNC(=O)c1c(C)[nH]c(/C=C2\C(=O)Nc3ccc(F)cc32)c1C`, for which the GI50 was 2.47 µM and 3 µM and 1.57 µM; the TGI is > 10 µM and 5.89 µM and 3.31 µM.

For the compound `CCN(CC)CC(=O)N1CCc2c([nH]c3ccccc23)C1c1cccnc1` (configuration not stated), the TGI is above 100 µM.

Consider `CCOC1Oc2ccccc2-c2oc(=O)c(Sc3ccc(C)cc3)cc21` (configuration not stated), for which the GI50 is 84.2 µM and the TGI is above 100 µM.

On to `CC1CCCc2c1nn(C(=O)/C=C(\N)c1ccccc1)c2N` (configuration not stated), for which the GI50 is 17.9 µM and the TGI was above 100 µM.

As to `O=c1c(Cl)c(Cl)cnn1CCc1ccncc1`, the TGI was determined as 30.7 µM.

The compound `Cc1ccc(S(=O)(=O)N/N=C(\c2nc3ccc([N+](=O)[O-])cc3[nH]c2=O)C(O)c2ccccc2Cl)cc1` (configuration not stated) had a TGI above 100 µM.

As for `COc1ccc(CC(C)C(C)Cc2ccc(OC)c(OC)c2)cc1OC` (configuration not stated), the GI50 is above 1400 µM and the TGI is above 1400 µM.

Take `Cc1ccc2c(c1)Sc1ccc(N=NN(C)C)cc1N2C`: the TGI was above 100 µM.

As to `O=C1C2=C(c3ccccc31)C(c1ccccc1Cl)N1C(=O)CCSC1=N2` (configuration not stated), the TGI was above 100 µM.

Take `Cc1ncc(C(=O)Nc2ccc(CN3CCN(C)CC3)c(C(F)(F)F)c2)cc1C#Cc1cnc(NC2CC2)c2ncccc12`: the GI50 is 0.641 µM and the TGI came to 1.18 µM.

Turning to `Cc1ccc2nc3c(Cl)c(C)c(=O)cc-3sc2c1`, the GI50 was above 100 µM and the TGI was above 100 µM.

In turn, `O=C/C(=C(/Cl)c1ccc(O)cc1)c1ccccc1` showed a TGI of 41.9 µM.

A further assay concerns SN12C renal. In words: inhibition of tumour cell growth, NCI panel, 48 h.
As to `CNC(=O)c1cc2c(Oc3ccc(NC(=O)C4(C(=O)Nc5ccc(F)cc5)CC4)cc3)ccnc2cc1OC`, the GI50 was 1.1 µM and the TGI is above 100 µM.

The compound `Cc1cc(N(CCC#N)CCC#N)ccc1/C=C1N=C(/C=C/c2ccccc2)OC(=O)N\1` yielded a TGI above 100 µM.

Turning to `O=S1(=O)NCCCN1CCNc1nccc(-c2c(-c3cccc(O)c3)nc3sccn23)n1`, the GI50 is 10.2 µM and the TGI is above 100 µM.

`O=C(c1ccc2ccccc2c1)c1c(C(F)(F)F)n([O-])c2ccc(Cl)cc2[n+]1=O`: the GI50 is 1.69 µM and the TGI turned out to be 3.2 µM.

Consider `CC(=O)OCC1OC(n2cc([N+](=O)[O-])c(=O)[nH]c2=O)C(OC(C)=O)C(OC(C)=O)C1OC(C)=O` (configuration not stated), for which the TGI was above 100 µM.

The compound `O=C1C=C(O)c2[nH]c(=O)ccc2C1=O` gave a TGI above 100 µM.

Consider `NC(=O)c1cccc(Nc2nccc(Nc3cccc(F)c3)n2)c1`, for which the GI50 is 7.98 µM and the TGI was above 25 µM.

In the case of `CCN(CC)CCNC(=O)c1c(C)[nH]c(/C=C2\C(=O)Nc3ccc(F)cc32)c1C`, the GI50 was 1.95 µM and 1.24 µM and 2.23 µM; the TGI was > 10 µM and 20 µM and 16.2 µM.

With `CCN(CC)CC(=O)N1CCc2c([nH]c3ccccc23)C1c1cccnc1` (configuration not stated), the TGI is above 100 µM.

Consider `CCOC1Oc2ccccc2-c2oc(=O)c(Sc3ccc(C)cc3)cc21` (configuration not stated), for which the GI50 was 29.5 µM and the TGI was above 100 µM.

Take `CC1CCCc2c1nn(C(=O)/C=C(\N)c1ccccc1)c2N` (configuration not stated): the GI50 was 8.13 µM and the TGI is above 100 µM.

In turn, `O=c1c(Cl)c(Cl)cnn1CCc1ccncc1` gave a TGI of 33.6 µM.

The compound `Cc1ccc(S(=O)(=O)N/N=C(\c2nc3ccc([N+](=O)[O-])cc3[nH]c2=O)C(O)c2ccccc2Cl)cc1` (configuration not stated) yielded a TGI above 100 µM.

`COc1ccc(CC(C)C(C)Cc2ccc(OC)c(OC)c2)cc1OC` (configuration not stated): the GI50 is above 1400 µM and the TGI is above 1400 µM.

On to `Cc1ccc2c(c1)Sc1ccc(N=NN(C)C)cc1N2C`, for which the TGI was above 100 µM.

For `O=C1C2=C(c3ccccc31)C(c1ccccc1Cl)N1C(=O)CCSC1=N2` (configuration not stated), the TGI was above 100 µM.

In the case of `Cc1ncc(C(=O)Nc2ccc(CN3CCN(C)CC3)c(C(F)(F)F)c2)cc1C#Cc1cnc(NC2CC2)c2ncccc12`, the GI50 is 1.67 µM and the TGI is 3.32 µM.

In the case of `Cc1ccc2nc3c(Cl)c(C)c(=O)cc-3sc2c1`, the GI50 was 69 µM and the TGI was above 100 µM.

The compound `O=C/C(=C(/Cl)c1ccc(O)cc1)c1ccccc1` yielded a TGI above 61.3 µM.

A further assay concerns SNB-75 CNS. In words: inhibition of tumour cell growth, NCI panel, 48 h.
For the compound `CNC(=O)c1cc2c(Oc3ccc(NC(=O)C4(C(=O)Nc5ccc(F)cc5)CC4)cc3)ccnc2cc1OC`, the GI50 was 0.0837 µM and the TGI stood at 2.74 µM.

Compound `Cc1cc(N(CCC#N)CCC#N)ccc1/C=C1N=C(/C=C/c2ccccc2)OC(=O)N\1` had a TGI above 100 µM.

In the case of `O=S1(=O)NCCCN1CCNc1nccc(-c2c(-c3cccc(O)c3)nc3sccn23)n1`, the GI50 was 7.78 µM and the TGI is above 100 µM.

Take `O=C(c1ccc2ccccc2c1)c1c(C(F)(F)F)n([O-])c2ccc(Cl)cc2[n+]1=O`: the GI50 was 1.3 µM and the TGI came out at 2.57 µM.

Compound `CC(=O)OCC1OC(n2cc([N+](=O)[O-])c(=O)[nH]c2=O)C(OC(C)=O)C(OC(C)=O)C1OC(C)=O` (configuration not stated) came in with a TGI above 100 µM.

The compound `O=C1C=C(O)c2[nH]c(=O)ccc2C1=O` yielded a TGI above 100 µM.

For the compound `NC(=O)c1cccc(Nc2nccc(Nc3cccc(F)c3)n2)c1`, the GI50 is 6.22 µM and the TGI was above 23.4 µM.

On to `CCN(CC)CCNC(=O)c1c(C)[nH]c(/C=C2\C(=O)Nc3ccc(F)cc32)c1C`, for which the GI50 is 4.61 µM and 2.11 µM and 4.33 µM; the TGI is > 10 µM and 4.55 µM and 14 µM.
